The text below walks through data of US7456146B2, “Lytic peptide prodrugs” (GHC Research Development Corporation, priority 2001, dated 2008).

Starred links: 1 amine or outer side, 2 acyl side, 3 side chain; linkers in the order of their positions; H or OH if unused. Groups on a side chain read outwards from the residue. No end group written: not given here. γGlu = O=C(O)[C@H](CCC(=O)[*:2])N[*:1]

In series [1] the test system is HeLa. The series is described as follows: lytic activity on cultured tumor cells, HeLa (FIG. 4, FIG. 5). In kind it is cell-based. The method, then:
(§1) This experiment, utilized a melittin analog having A [ε-γ]-Glu-[α-γ]-Glu at each of lysines 21 and 23: NH2-[…][ε-γ]-Glu-[α-γ]-Glu)-Arg-Lys([ε-γ]-Glu-[α-γ]-Glu)-Arg-Gln-Gln-COOH. (SEQ ID NO: 19) Two prostate tumors (PNCap and DU0145), two ovarian tumors (HeLa and SK-OV-3), one lung tumor (LLC 1) and one melanoma (B 16) were tested. Cultured cells were treated with 1, 10, 50 or 100 μM peptide.
(§2) The same analog was used to treat a PSMA-expressing prostate cells (LNCaP-FCG), ovarian cancer cells (HeLa) or prostate cells not expressing PSMA (PC3).

Series [2] has as its system mice. The series is described as follows: toxicity of escalating doses in mice. The class given is in vivo. Conditions: 50, 100, 150 and 200 mM. How it is done: To assess the toxicity of this analog, mice were treated with escalating doses of analog, either subcutaneously or intravenously.
In series [3] the test system is DU0145. Nature of the series: lytic activity on cultured tumor cells, prostate tumor DU0145 (FIG. 4). The class given is cell-based. The settings on record: 1, 10, 50 or 100 μM peptide. The method, then:
as §1

The subject of series [4] is B 16. Nature of the series: lytic activity on cultured tumor cells, melanoma B 16 (FIG. 4). In kind it is cell-based. Conditions: 1, 10, 50 or 100 μM peptide. How it is done: as §1
For series [5], the system named is SK-OV-3. The series is described as follows: lytic activity on cultured tumor cells, ovarian tumor SK-OV-3 (FIG. 4). The settings on record: 1, 10, 50 or 100 μM peptide. The class given is cell-based. How it is done:
as §1

Series [6] relates to PNCap. The series is described as follows: lytic activity on cultured tumor cells, prostate tumor PNCap (FIG. 4). The class given is cell-based. Conditions: 1, 10, 50 or 100 μM peptide. The method, then: as §1
Series [7] concerns PSMA-expressing prostate cells (LNCaP-FCG). The series is described as follows: toxicity to PSMA-expressing prostate cells (FIG. 5). The class given is cell-based. The settings on record: 25 and 50 mM concentrations.
Text: as §2

Series [8] relates to LLC 1. Nature of the series: lytic activity on cultured tumor cells, lung tumor LLC 1 (FIG. 4). The class given is cell-based. Conditions: 1, 10, 50 or 100 μM peptide. The method, then:
as §1

For series [9], the system named is prostate cells not expressing PSMA (PC3). Nature of the series: toxicity to prostate cells not expressing PSMA (FIG. 5). The settings on record: 25 and 50 mM concentrations. In kind it is cell-based.
Text: as §2

In series [10] the test system is nucleated cells. The settings on record: cited from earlier work.
Series [11] concerns human prostate cancer cells (LNCaP). Nature of the series: cell lysis assay, LNCaP prostate tumor cells (FIG. 1). The settings on record: 50 μM; after 15 minutes. The class given is cell-based. How it is done: For cell lysis assay, 10^6 LNCaP prostate tumor cells were cultured in 48-well plate in 200 μl culture medium containing different concentrations of the peptide. The culture medium for LNCaP cell was RPMI 1640 medium with 2 mM L-glutamine adjusted to contain 1.5 g/L sodium bicarbonate, 4.5 g/L glucose, 10 mM HEPES, 1.0 mM sodium pyruvate, 90%; fetal bovine serum 10%. […]

Series [12] has the same test system. Nature of the series: ATP depletion assay (ATP bioluminescence), LNCaP (FIG. 3). In kind it is cell-based. Conditions: 50 or 100 μM; after 1 hour. From the text:
(§3) In order to obtain a more quantitative result, the assay was repeated and decrease in ATP levels was used as a surrogate marker for live versus dead cells. ATP plays a central role in the energy status of the cell and the regulation of enzymatic activity. The intracellular ATP level is strictly regulated. The assay of ATP has been used as a rapid and convenient measure of viable cell numbers. ATP level can be enzymatically determined with firefly luciferase, which specifically catalyzes the hydrolysis of ATP. The amount of light generated by this enzymatic reaction is directly related to the amount of ATP in the original sample.
(§4) For this purpose, the ATP Bioluminescence Assay Kit CLS II from Boehringer-Mannheim (Cat. No. 1699695) was employed. Briefly, 10^6 cells in 200 μl of medium containing the peptide, as above, were incubated at 37° C. in a CO2 incubator for 60 min. The cells were then lysed with 10 μl of 10% Triton X-100. Each lysate was transferred into a tube containing 155 μl of distilled water and 25 μl of stock luciferase and chemiluminescence was measured in a luminometer as directed by the manufacturer. As can been seen from FIG. 3, ATP is dramatically depleted in the presence of either 50 or 100 μM peptide, as compared to the controls.

Series [13] has as its system mouse L-cells. The series is described as follows: ATP depletion assay (ATP bioluminescence), mouse L-cells (FIG. 3). The settings on record: 50 or 100 μM; 1 hour. The class given is cell-based.
Text: as §3, §4

Series [14] relates to mouse L-cells. The series is described as follows: cell lysis assay, mouse L-cells (FIG. 1). The class given is cell-based. The settings on record: 50 μM; after 24 hours.

Consider `CC[C@H](C)[C@H](NC(=O)CN)C(=O)NCC(=O)N[C@@H](C)C(=O)N[C@H](C(=O)N[C@@H](CC(C)C)C(=O)N[C@@H](CCCCN)C(=O)N[C@H](C(=O)N[C@@H](CC(C)C)C(=O)N[C@H](C(=O)N[C@H](C(=O)NCC(=O)N[C@@H](CC(C)C)C(=O)N1CCC[C@H]1C(=O)N[C@@H](C)C(=O)N[C@@H](CC(C)C)C(=O)N[C@H](C(=O)N[C@@H](CO)C(=O)N[C@@H](Cc1c[nH]c2ccccc12)C(=O)N[C@H](C(=O)N[C@@H](CCCCNC(=O)CC[C@H](NC(=O)CC[C@H](N)C(=O)O)C(=O)O)C(=O)N[C@@H](CCCNC(=N)N)C(=O)N[C@@H](CCCCNC(=O)CC[C@H](NC(=O)CC[C@H](N)C(=O)O)C(=O)O)C(=O)N[C@@H](CCCNC(=N)N)C(=O)N[C@@H](CCC(N)=O)C(=O)N[C@@H](CCC(N)=O)C(=O)O)[C@@H](C)CC)[C@@H](C)CC)[C@@H](C)O)[C@@H](C)O)C(C)C)C(C)C` [melittin analog], for which the lytic activity entry in series [1] (1, 10, 50 or 100 μM peptide) is “strong lytic activity”; in series [3], “strong lytic activity”; in series [4], “strong lytic activity”; in series [5] it was “strong lytic activity”; in series [6], “strong lytic activity”; in series [8], “strong lytic activity”. Further, the toxicity to cells result in series [1] (25 and 50 mM concentrations) is listed as “highly toxic”; in series [7] it was “highly toxic”; in series [9] it was “relatively unaffected”. Besides, the “tolerated concentration relative to concentration needed to kill a mouse using the unmasked melittin peptide” value in [2] was 50-200 fold. In addition, the “condition of mice after treatment” value in series [2] (subcutaneously or intravenously, weeks following treatment) is “remained healthy, apparently unaffected”.

As for “NH2-Gly-Phe-Ile-Ala-Thr-Leu-Cys-Thr-Lys-Val-Leu-Asp-Phe-Gly-Ile-Asp-Lys-Leu-Ile-Gln-Leu-Ile-Glu-Asp-Lys-CONH2 (H-GFIATLCTKVLDFGIDKLIQLIEDK-NH2; listed as Entamoeba histolytica) [Amoebapore Helix 3]”, in [10], the “concentration with cytolytic activity” value was 10 to 100 µM.

Turning to “amoebapore helix 3-γ-Glu-γ-Glu: 25-residue C-terminal amidated amoebapore helix 3 peptide with two γ-linked glutamates on the ε amino group of the C-terminal lysine (GFIATLCTKVLDFGIDKLIQLIEDK([γGlu-γGlu])-NH2; N-terminus assumed; SMILES CC[C@H](C)[C@H](NC(=O)CNC(=O)[C@H](Cc1ccccc1)NC(=O)[C@H](CC(=O)O)NC(=O)[C@H](CC(C)C)NC(=O)[C@@H](NC(=O)[C@H](CCCCN)NC(=O)[C@@H](NC(=O)[C@H](CS)NC(=O)[C@H](CC(C)C)NC(=O)[C@@H](NC(=O)[C@H](C)NC(=O)[C@@H](NC(=O)[C@H](Cc1ccccc1)NC(=O)CN)[C@@H](C)CC)[C@@H](C)O)[C@@H](C)O)C(C)C)C(=O)N[C@@H](CC(=O)O)C(=O)N[C@@H](CCCCN)C(=O)N[C@@H](CC(C)C)C(=O)N[C@H](C(=O)N[C@@H](CCC(N)=O)C(=O)N[C@@H](CC(C)C)C(=O)N[C@H](C(=O)N[C@@H](CCC(=O)O)C(=O)N[C@@H](CC(=O)O)C(=O)N[C@@H](CCCCNC(=O)CC[C@H](NC(=O)CC[C@H](N)C(=O)O)C(=O)O)C(N)=O)[C@@H](C)CC)[C@@H](C)CC)”, the values for the cell lysis result in [11] and in series [14] were “completely lysed” and “remain unaffected”, respectively. Further, the “cell lysis by ATP depletion” value was “completely lysed” in series [12] and “remain unaffected” in series [13].
